Key:
[1] = 1-Day stability study of prodrugs in aqueous solution; format: physicochemical; settings: aqueous solution 80 μg/mL, ambient storage
Method: The L-dopa phosphate prodrugs and the carbidopa phosphate prodrugs were evaluated in a stability study.

[2] = In vitro bioconversion study (skin homogenates), rat; settings: rat skin homogenate 3 mg/mL, prodrug 2.5 μg/mL, 37° C.
[3] = Phosphate prodrug solubility study in water; format: physicochemical; settings: water, ambient, visual assessment
Method: The L-dopa phosphate prodrugs and the carbidopa phosphate prodrugs were evaluated in a solubility study. The solubility values of the phosphate prodrugs in water under ambient conditions were determined by visual assessment. Table 13-A reports the results of the study, including the measured values for L-dopa and carbidopa.

[4] = In vitro bioconversion study (skin homogenates), human; settings: human skin homogenate 3 mg/mL, prodrug 2.5 μg/mL, 37° C.
[5] = In vitro bioconversion study (blood), rat; settings: prodrug 2.5 μg/mL, 37° C.
Method: The in vitro bioconversion of the L-dopa phosphate prodrugs to L-dopa and the carbidopa phosphate prodrugs to carbidopa was evaluated in several studies. […] The reaction mixtures were incubated at 37° C. for 5 to 6 time points within 1 to 2 hours. At the end of each time point, the reaction mixtures were quenched by 2 to 3 volumes of 5% trichloroacetic acid in water. After quenching, the mixtures were centrifuged at 3000 rpm for 20 minutes, and the supernatants were analyzed by LC-MS for quantitation of the prodrug, L-dopa or carbidopa. The in vitro bioconversion was assessed by monitoring both time-dependent depletion of the prodrug and the formation of the corresponding L-dopa or carbidopa.

[6] = In vitro bioconversion study (blood), human; format: in vitro ADME; settings: prodrug 2.5 μg/mL, 37° C.
Method: (§1) The in vitro bioconversion of the L-dopa phosphate prodrugs to L-dopa and the carbidopa phosphate prodrugs to carbidopa was evaluated in several studies. In brief, the L-dopa and carbidopa phosphate prodrugs (2.5 μg/mL) were incubated with tissue homogenate or fractions from rats, mini-pigs, or human, including blood, skin homogenate (3 mg/mL), liver microsomes (1 mg/mL), liver S9 fraction (1 mg/mL), kidney S9 fraction (1 mg/mL), and intestine S9 fractions (1 mg/mL). The reaction mixtures were incubated at 37° C. for 5 to 6 time points within 1 to 2 hours. At the end of each time point, the reaction mixtures were quenched by 2 to 3 volumes of 5% trichloroacetic acid in water. After quenching, the mixtures were centrifuged at 3000 rpm for 20 minutes, and the supernatants were analyzed by LC-MS for quantitation of the prodrug, L-dopa or carbidopa. The in vitro bioconversion was assessed by monitoring both time-dependent depletion of the prodrug and the formation of the corresponding L-dopa or carbidopa.

[7] = In vitro bioconversion study (blood), mini-pig; format: in vitro ADME; settings: prodrug 2.5 μg/mL, 37° C.
Method: as §1

[8] = In vitro bioconversion study (skin homogenates), mini-pig; settings: mini-pig skin homogenate 3 mg/mL, prodrug 2.5 μg/mL, 37° C.
[9] = human
[10] = In vitro bioconversion study, human liver microsomes; format: in vitro ADME; settings: human liver microsomes 1 mg/mL, prodrug 2.5 μg/mL, 37° C.
Method: as §1

SMILES | % Remaining After One Day ([1]; pH 6.5) | L-Dopa or Carbidopa Formation [2] | T1/2 [2] | Solubility ([3]; pH 7.1, Amorphous) | L-Dopa or Carbidopa Formation [4] | T1/2 [4] | L-Dopa or Carbidopa Formation [5] | T1/2 [5] | L-Dopa or Carbidopa Formation [6] | T1/2 [6] | L-Dopa or Carbidopa Formation [7] | T1/2 [7] | L-Dopa or Carbidopa Formation [8] | T1/2 [8] | CLp (plasma clearance), Value [9] | CLp Levodopa [9] | % Remaining After One Day ([1]; pH 7.0) | Solubility ([3]; pH 7.0, Crystalline) | stability and formation of L-dopa or carbidopa [10]
C[C@@](Cc1ccc(O)c(OP(=O)(O)O)c1)(NN)C(=O)O [Carbidopa 3′-phosphate, Carbidopa 3′-monophosphate] | >94% | Yes | 12.1 h | >96 mg/mL | Yes | 10 h | Yes | 0.342 h | Yes | 0.967 h | Yes | 8.9 min | Yes | 6.88 h | – | – | – | – | –
N[C@@H](Cc1ccc(O)c(O)c1)C(=O)O [L-dopa, L-3,4-dihydroxyphenylalanine] | – | – | – | – | – | – | – | – | – | – | – | – | – | – | 24 L/h | 24 L/h | – | – | –
N[C@@H](Cc1ccc(O)c(OP(=O)(O)O)c1)C(=O)O [L-dopa 3′-phosphate] | – | Yes | 12.3 h | – | Yes | 11.2 h | Yes | 0.343 h | Yes | 0.467 h | Yes | 8.8 min | Yes | 14.8 h | – | – | >99% | >161 mg/mL | stable without formation of L-dopa or carbidopa observed
C[C@@](Cc1ccc(O)c(O)c1)(NN)C(=O)O [Carbidopa, (2S)-3-(3,4-dihydroxyphenyl)-2-hydrazino-2-methylpropanoic acid] | – | – | – | – | – | – | – | – | – | – | – | – | – | – | 18 L/h | – | – | – | –
